Source: ChEMBL document CHEMBL1201862, “PubChem BioAssay data set” (2004)
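Dose response: 5 concentrations. Exposure: 48 h. Format: 96-well plates. Endpoint: linear interpolation; highest concentration if not reached. Here, GI50 denotes the concentration required for 50% inhibition of growth.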 Active and inactive are the calls of the source. Cut-off read from the data, not from the text of the source: active = GI50 up to about 1.1 µM and inactive = higher.

Assays:
Experiment in all cases: growth of human tumour cells (NCI), 48 h
786-0 = system: 786-0
DMS-114 = system: DMS-114
OVCAR-5 = system: OVCAR-5
MOLT-4 = system: MOLT-4
HL-60 = system: HL-60
NCI-H522 = system: NCI-H522
UACC-62 = system: UACC-62
SNB-19 = system: SNB-19
M19-MEL = system: M19-MEL
K562 = system: K562
DLD-1 = system: DLD-1
UACC-257 = system: UACC-257
SF-268 = system: SF-268
Malme-3M = system: Malme-3M
M14 = system: M14
SW-620 = system: SW-620
U-251 = system: U-251
HOP-62 = system: HOP-62
HCT-116 = system: HCT-116
DMS-273 = system: DMS-273
KM12 = system: KM12
SF-539 = system: SF-539
COLO 205 = system: COLO 205
LOX IMVI = system: LOX IMVI
SK-MEL-2 = system: SK-MEL-2
HCC 2998 = system: HCC 2998
OVCAR-8 = system: OVCAR-8
OVCAR-3 = system: OVCAR-3
NCI-H460 = system: NCI-H460
HOP-92 = system: HOP-92
NCI-H23 = system: NCI-H23
HCT-15 = system: HCT-15
ACHN = system: ACHN
OVCAR-4 = system: OVCAR-4
SK-MEL-5 = system: SK-MEL-5
LXFL 529 = system: LXFL 529
SN12C = system: SN12C
CCRF-CEM = system: CCRF-CEM
SNB-75 = system: SNB-75
A549 = system: A549
SK-MEL-28 = system: SK-MEL-28
SR = system: SR
KM-20L2 = system: KM-20L2
TK-10 = system: TK-10
CAKI-1 = system: CAKI-1
A498 = system: A498
EKVX = system: EKVX
NCI-H226 = system: NCI-H226
RPMI-8226 = system: RPMI-8226
UO-31 = system: UO-31
T47D = system: T47D
PC-3 = system: PC-3
MDA-N = system: MDA-N
DU-145 = system: DU-145
Hs-578T = system: Hs-578T
MDA-MB-435 = system: MDA-MB-435
NCI/ADR-RES = system: NCI/ADR-RES
IGROV-1 = system: IGROV-1
SF-295 = system: SF-295
MCF7 = system: MCF7
HT-29 = system: HT-29
RXF 393 = system: RXF 393
MDA-MB-231 = system: MDA-MB-231
SK-OV-3 = system: SK-OV-3
BT-549 = system: BT-549

## O=C(c1ccc(O)cc1)C1c2c3c(cc(O)c2C(c2ccc(O)cc2)C1c1cc(O)cc(O)c1)OC(c1ccc(O)cc1)C3c1cc2c(cc1O)OC(c1ccc(O)cc1)C2c1cc(O)cc(O)c1 (stereo not drawn)
786-0
  GI50: > 12.5 µM (inactive)
DMS-114
  GI50: > 12.5 µM (inactive)
OVCAR-5
  GI50: > 12.5 µM (inactive)
MOLT-4
  GI50: > 12.5 µM (inactive)
HL-60
  GI50: > 12.5 µM (inactive)
NCI-H522
  GI50: > 12.5 µM (inactive)
UACC-62
  GI50: 0.065 µM (active)
SNB-19
  GI50: > 12.5 µM (inactive)
M19-MEL
  GI50: > 12.5 µM (inactive)
K562
  GI50: > 12.5 µM (inactive)
DLD-1
  GI50: > 12.5 µM (inactive)
UACC-257
  GI50: > 12.5 µM (inactive)
SF-268
  GI50: > 12.5 µM (inactive)
Malme-3M
  GI50: > 12.5 µM (inactive)
M14
  GI50: > 12.5 µM (inactive)
SW-620
  GI50: > 12.5 µM (inactive)
U-251
  GI50: > 12.5 µM (inactive)
HOP-62
  GI50: > 12.5 µM (inactive)
HCT-116
  GI50: > 12.5 µM (inactive)
DMS-273
  GI50: > 12.5 µM (inactive)
KM12
  GI50: > 12.5 µM (inactive)
SF-539
  GI50: > 12.5 µM (inactive)
COLO 205
  GI50: > 12.5 µM (inactive)
LOX IMVI
  GI50: > 12.5 µM (inactive)
SK-MEL-2
  GI50: > 12.5 µM (inactive)
HCC 2998
  GI50: > 12.5 µM (inactive)
OVCAR-8
  GI50: > 12.5 µM (inactive)
OVCAR-3
  GI50: > 12.5 µM (inactive)
NCI-H460
  GI50: > 12.5 µM (inactive)
HOP-92
  GI50: > 12.5 µM (inactive)
NCI-H23
  GI50: > 12.5 µM (inactive)
HCT-15
  GI50: > 12.5 µM
ACHN
  GI50: > 12.5 µM (inactive)
OVCAR-4
  GI50: > 12.5 µM (inactive)
SK-MEL-5
  GI50: > 12.5 µM (inactive)
LXFL 529
  GI50: > 12.5 µM (inactive)
SN12C
  GI50: > 12.5 µM (inactive)
CCRF-CEM
  GI50: > 12.5 µM (inactive)
SNB-75
  GI50: > 12.5 µM (inactive)
A549
  GI50: > 12.5 µM (inactive)
SK-MEL-28
  GI50: > 12.5 µM (inactive)
SR
  GI50: > 12.5 µM (inactive)
KM-20L2
  GI50: > 12.5 µM (inactive)
TK-10
  GI50: > 12.5 µM (inactive)
CAKI-1
  GI50: > 12.5 µM (inactive)
A498
  GI50: > 12.5 µM (inactive)
EKVX
  GI50: > 12.5 µM (inactive)
NCI-H226
  GI50: > 12.5 µM (inactive)
RPMI-8226
  GI50: > 12.5 µM (inactive)
UO-31
  GI50: > 12.5 µM (inactive)

## COC(=O)c1c(C)ccc2c(O)c3c(cc12)C(=O)c1c2c(cc(O)c1C3=O)C1(C)OC(C)(O2)C(O)C(N(C)C)C1O (stereo not drawn)
T47D
  GI50: 2.76 µM (inactive)
786-0
  GI50: 0.767 µM (active)
PC-3
  GI50: 1.66 µM (inactive)
OVCAR-5
  GI50: 2.96 µM (inactive)
MDA-N
  GI50: 1.45 µM (inactive)
MOLT-4
  GI50: 0.543 µM (active)
HL-60
  GI50: 3.98 µM (inactive)
NCI-H522
  GI50: 1.22 µM (inactive)
DU-145
  GI50: 1.43 µM (inactive)
UACC-62
  GI50: 1.66 µM (inactive)
SNB-19
  GI50: 1.35 µM (inactive)
Hs-578T
  GI50: 1.86 µM (inactive)
MDA-MB-435
  GI50: 1.62 µM (inactive)
K562
  GI50: 0.942 µM (active)
UACC-257
  GI50: 1.65 µM (inactive)
SF-268
  GI50: 1.05 µM (active)
NCI/ADR-RES
  GI50: 2.79 µM (inactive)
Malme-3M
  GI50: 2.62 µM (inactive)
M14
  GI50: 1.85 µM (inactive)
SW-620
  GI50: 0.869 µM (active)
IGROV-1
  GI50: 1.06 µM (active)
U-251
  GI50: 0.667 µM (active)
HOP-62
  GI50: 1.74 µM (inactive)
SF-295
  GI50: 1.81 µM (inactive)
HCT-116
  GI50: 0.643 µM (active)
KM12
  GI50: 1.42 µM (inactive)
SF-539
  GI50: 2.21 µM (inactive)
COLO 205
  GI50: 1.82 µM (inactive)
MCF7
  GI50: 1.28 µM (inactive)
LOX IMVI
  GI50: 1.24 µM (inactive)
SK-MEL-2
  GI50: 2.24 µM (inactive)
HCC 2998
  GI50: 0.532 µM (active)
OVCAR-8
  GI50: 0.83 µM (active)
HT-29
  GI50: 0.577 µM (active)
OVCAR-3
  GI50: 2.41 µM (inactive)
RXF 393
  GI50: 1.22 µM (inactive)
NCI-H460
  GI50: 0.681 µM (active)
HOP-92
  GI50: 1.82 µM (inactive)
NCI-H23
  GI50: 1.56 µM (inactive)
HCT-15
  GI50: 1.46 µM
MDA-MB-231
  GI50: 1.38 µM (inactive)
ACHN
  GI50: 1.23 µM (inactive)
OVCAR-4
  GI50: 2.12 µM (inactive)
SK-OV-3
  GI50: 3.33 µM (inactive)
SK-MEL-5
  GI50: 8.38 µM (inactive)
SN12C
  GI50: 2.41 µM (inactive)
CCRF-CEM
  GI50: 0.283 µM (active)
SNB-75
  GI50: 1.61 µM (inactive)
A549
  GI50: 1.28 µM (inactive)
SK-MEL-28
  GI50: 4.37 µM (inactive)
SR
  GI50: 0.294 µM (active)
BT-549
  GI50: 3.61 µM (inactive)
TK-10
  GI50: 1.4 µM (inactive)
CAKI-1
  GI50: 1.91 µM (inactive)
A498
  GI50: 1.57 µM (inactive)
EKVX
  GI50: 2.37 µM (inactive)
NCI-H226
  GI50: 2.26 µM (inactive)
RPMI-8226
  GI50: 0.946 µM (active)
UO-31
  GI50: 1.87 µM (inactive)

## COC(=O)C1OC(O[C@H]2CC[C@]3(C)[C@H]4CC=C5[C@@H]6CC(C)(C)CC[C@]6(C(=O)OC6OCC(O)C(O)C6OC6OC(C)C(OC7OCC(O)C(O)C7O)C(OC7OCC(O)(CO)C7O)C6O)[C@H](O)C[C@@]5(C)[C@]4(C)CC[C@H]3C2(C)C)C(O)C(O)C1O (stereo partly drawn)
T47D
  GI50: 3.86 µM (inactive)
786-0
  GI50: 7.45 µM (inactive)
PC-3
  GI50: 3.85 µM (inactive)
OVCAR-5
  GI50: 3.97 µM (inactive)
MDA-N
  GI50: 2.01 µM (inactive)
MOLT-4
  GI50: 5.13 µM (inactive)
HL-60
  GI50: 2.35 µM (inactive)
NCI-H522
  GI50: 2.14 µM (inactive)
DU-145
  GI50: 8.53 µM (inactive)
UACC-62
  GI50: 2.51 µM (inactive)
SNB-19
  GI50: 5.57 µM (inactive)
Hs-578T
  GI50: 11.9 µM (inactive)
MDA-MB-435
  GI50: 1.89 µM (inactive)
K562
  GI50: 5.08 µM (inactive)
UACC-257
  GI50: 2.96 µM (inactive)
SF-268
  GI50: 10 µM (inactive)
NCI/ADR-RES
  GI50: 4.91 µM (inactive)
Malme-3M
  GI50: 4.14 µM (inactive)
M14
  GI50: 2.82 µM (inactive)
SW-620
  GI50: 6.28 µM (inactive)
IGROV-1
  GI50: 12.1 µM (inactive)
U-251
  GI50: 6.5 µM (inactive)
HOP-62
  GI50: 3.13 µM (inactive)
SF-295
  GI50: 4.43 µM (inactive)
HCT-116
  GI50: 3.61 µM (inactive)
KM12
  GI50: 2.88 µM (inactive)
SF-539
  GI50: 31.6 µM (inactive)
COLO 205
  GI50: 1.57 µM (inactive)
MCF7
  GI50: 1.38 µM (inactive)
LOX IMVI
  GI50: 7.64 µM (inactive)
SK-MEL-2
  GI50: 2.56 µM (inactive)
HCC 2998
  GI50: 2.29 µM (inactive)
OVCAR-8
  GI50: 10.5 µM (inactive)
HT-29
  GI50: 2.54 µM (inactive)
OVCAR-3
  GI50: 8.63 µM (inactive)
RXF 393
  GI50: 10.9 µM (inactive)
NCI-H460
  GI50: 16.3 µM (inactive)
HOP-92
  GI50: 1.83 µM (inactive)
NCI-H23
  GI50: 1.8 µM (inactive)
HCT-15
  GI50: 10.3 µM
MDA-MB-231
  GI50: 2.32 µM (inactive)
ACHN
  GI50: 3.31 µM (inactive)
OVCAR-4
  GI50: 4.98 µM (inactive)
SK-OV-3
  GI50: 12.2 µM (inactive)
SK-MEL-5
  GI50: 4.65 µM (inactive)
SN12C
  GI50: 1.85 µM (inactive)
CCRF-CEM
  GI50: 14.9 µM (inactive)
SNB-75
  GI50: 6.27 µM (inactive)
A549
  GI50: 3.52 µM (inactive)
SK-MEL-28
  GI50: 2.2 µM (inactive)
SR
  GI50: 2.08 µM (inactive)
BT-549
  GI50: 2.64 µM (inactive)
TK-10
  GI50: 15.9 µM (inactive)
CAKI-1
  GI50: 4.69 µM (inactive)
A498
  GI50: 1.76 µM (inactive)
EKVX
  GI50: 2.77 µM (inactive)
NCI-H226
  GI50: 4.23 µM (inactive)
RPMI-8226
  GI50: 3.86 µM (inactive)
UO-31
  GI50: 1.81 µM (inactive)
